The numbers were not newly measured in patent publication US8389024B2, “Abscisic acid against cancer” (priority 2005, dated 2013), which cites them from elsewhere.

Read-outs that look alike come from different tables or passages of the source.

The conditions of series [1]: the mentioned concentration (50 mg/ml), Sigma-Aldrich.
Series [2] has as its system leaf discs of V. Faba.
The subject of series [3] is head and neck squamous cell carcinoma. The following applies: in vivo.
Series [4] has as its system lymphoblastic leukemia, prostate, breast and melanoma human cancer cells.
The test system of series [5] is Lemna gibba G1.
Series [6] has as its system stomatal opening. The conditions noted are these: 10 mcM ABA extracellular application.
For series [7], the system named is TCA8113 (human oral carcinoma). The following applies: TCA8113 cells in vitro.
Series [8] relates to humans with cancer. The conditions noted are these: 62 random cases, inconclusive cases not considered; digestive treatment with ABA plus vaccine against P. crytocides.
Series [9] relates to human and murine pancreatic beta cells.
Series [10] concerns HL-60 (promyelocytic leukemia). The conditions noted are these: HL-60 tumor cells.
Series [11] deals with a variety of tumor cells.
The subject of series [12] is nuclear protein Ki67.
Series [13] concerns DU-145 (prostate cancer). The conditions noted are these: DU-145 tumor cells.
For series [14], the system named is TNFALFA. The conditions noted are these: human monocytes, murine microglia and murine macrophages.
The subject of series [15] is C 1498 transplanted tumor with myeloid leukemia. The following applies: for rate of survival at the end of 14 days: groups of 10 mice, treated 7 days; for survival: oral.
For series [16], the system named is four human cancer cell lines (HELA, DU145, HCT116 AND K562).
For series [17], the system named is human granulocytes.

On to `CC1=CC(=O)CC(C)(C)C1(O)/C=C/C(C)=C\C(=O)O` (racemic) [(+/−)-Abscisic acid], for which the “appearance of the solution in ethanol” value in series [1] is on record as “clear to slightly hazy”.

In the case of `CC1=CC(=O)CC(C)(C)C1(O)/C=C/C(C)=C\C(=O)O` (racemic) [racemic ABA (R)], the “half-lives (catabolism)” value in series [2] was 30 to 32 h.

`CC1=C(/C=C/C(C)=C/C=C/C(C)=C\C(=O)O)C(C)(C)CCC1` [ISOTRETINOIN]: the “effectiveness in chemoprevention trial” value in [3] is “not effective”.

Regarding `CC/C=C\C[C@H]1C(=O)CC[C@@H]1CC(=O)O` [JA, jasmonic acid], the “proliferation or apoptosis of mammalian cancer cells” value (“proliferation or apoptosis” for short) in series [4] was “can suppress the proliferation or cause apoptosis”.

In the case of `CC/C=C\CC1C(=O)CCC1CC(=O)OC` (stereo not drawn) [MJ, methyl jasmonate], the “proliferation or apoptosis” value in series [4] is given as “can suppress the proliferation or cause apoptosis”.

On to `O=C([O-])c1ccccc1O.[Na+]` [SA, sodium salicylate], for which the “proliferation or apoptosis” value in [4] was “can suppress the proliferation or cause apoptosis”.

With `CC1=CC(=O)CC(C)(C)[C@@]1(O)/C=C/C(C)=C\C(=O)O` [natural ABA (S)], in series [2], the “half-lives (catabolism)” value was 6 to 8 h.

As for “[S-(Z,E)]-5-(1-Hydroxy-2,6,6-trimethyl-4-oxo-2-cyclohexen-1-yl)-3-methyl-2,4-pentadienoic acid [ABA]”, the “EPD after ABA treatment” value in series [5] (after 15 hours ABA treatment, from −109 mV) is given as −194 mV. In [5] (treatment with 10-100 mcm ABA), the “potential increase in average (EPD)” value was 85 mV. For the same molecule, the “inhibition of stomatal opening” value was 98% in [6] (pH 6.15) and 57% in series [6] (pH 8.0). In addition, in series [7], the “expression of differentiation and apoptosis markers” value is “expression of RARBETA, involucrin protein and caspase-3 mRNA”. In series [8], the success rate result is “around 82%”. In addition, the insulin secretion entry in [9] was “endogenous stimulator of insulin secretion”. For the same molecule, the “changes in morphology of cancer cells” value in series [10] was “absence of tumor cell nuclear membrane microvilli and presentation of typical apoptosis characteristics”; in series [13] it was “growth in poor condition and nuclear pycnosis”. The angiogenesis result in [11] is “inhibit angiogenesis”. Besides, the apoptosis entry in series [11] is “produce apoptosis”; in series [16] it was “induction of apoptosis”. Moreover, the “cell cycle and cell division of proliferating tumor cells” value in [11] was “make proliferating tumor cells stagnate in S-phase and stop cell division”. Besides, the “differentiation of cancer cells” value in series [11] was “become cancer cells in normal cells”. For the same molecule, in [12], the “nuclear protein Ki67 expressed in proliferating tumor cells” value was “reduced”. The TNFALFA result in series [14] was “increased”. The “rate of survival at the end of 14 days” value in [15] (Group II, ABA 1 mg/kg (i.p)) is 9 survivors; in [15] (Group III, ABA 10 mg/kg (i.p)) it was 10 survivors; in series [15] (Group IV, ABA 10 mg/kg (oral)), 6 survivors; in series [15] (Group V, ABA 100 mg/kg (oral)) it was 9 survivors. In addition, the survivors in [15] (group number II, 1 mg/kg) is on record as 90%. The “inhibition of the tumor system (C1498) in mice (C57BL/6J)” value in [15] (mouse, in vivo) is “marked effect in the inhibition”. Also, the values for the survival in series [15] (dose at 10 mg/kg) and in series [15] (dose at 100 mg/kg) were 60% and 90%, respectively. The cell cycle progression entry in [16] was “changed cell cycle progression”. Also, the cell proliferation rate result in [16] is recorded as “reduced cell proliferation rate”. For the same molecule, in series [16], the “luminescence (indicator of reduced negative surface charge)” value is given as “reduced luminescence”. Also, the tumor growth entry in series [16] is “tumor growth reduction”. For the same molecule, the “functional activities of human granulocytes” value in series [17] is “stimulates several functional activities as phagocytosis, reactive oxygen species (ROS) and nitric oxide production, and chemotaxis”.
